The text below walks through data of patent EP0407586A1, “HUMAN MONOCLONAL ANTIBODY AND PROCESS FOR ITS PREPARATION” (TEIJIN LIMITED, priority 1988, dated 1990).

pIC50: −log10 of the molar value.

In one assay the test system is reaction of the MCA produced by hybridoma 11-50 with human colon cancer cell line SW480. In words: Inhibition of the reaction of the MCA with immobilized SW480 cells (ELISA). Format: binding. As to conditions: SW480, result in words. The method, then: It was determined by the ELISA. As an antigen, 10 µg/ml asialofetuin (SIGMA) solution in 0.1 M borate buffer (pH 8.6) whose 100 ul was immobilized to each well of the Falcon microtest III plate (96 wells) was used. The supernatant of the hybridoma culture mixture was added to the plate with 50 µl every well and allowed to stand at room temperature for 1 hour. The wells were washed with 1 % bovine serum albumin (abbreviated to BSA hereinafter)-containing Hanks' buffer salt solution (abbreviated to HBSS-B) 3 times, then 100 µl of 0.6 mg/ml p-nitrophenyl phosphate solution in 1 M diethanolamine + 1 mM MgCl2 (pH 9.8) were added. After 30 to 60 minutes, the absorbance at 405 nm wavelength was measured to select the hybridomas with antibody activity.
Fifty microliters of 30-fold diluted culture supernatant of hybridoma 11-50 with HBSS-B and fifty microliters of a variety of protein solutions diluted stepwise with HBSS-B (described in Table 3) were mixed beforehand, then 50 µl of the mixture was added to a -96-well plate to which human colon cancer cell line SW480 had been immobilized with glutaraldehyde, then allowed to stand at room temperature for 1 hour. The following procedures were done according to the method described in Example 1-(3).
Inhibitory activity in % = [1 - (A405 in the presence of an inhibitor)/(A405-in the absence of an inhibitor)]
Various kinds of oligosaccharides (listed in Table 4) were diluted stepwise with HBSS-B and the solutions were used to conduct the evaluation according to the method ,described in Example 4-(1).
For `CC(=O)N[C@H]1[C@H](O[C@H]2[C@@H](O)[C@@H](CO)O[C@@H](O[C@H]3[C@H](O)[C@@H](O)C(O)O[C@@H]3CO)[C@@H]2O)O[C@H](CO)[C@@H](O)[C@@H]1O[C@@H]1O[C@H](CO)[C@H](O)[C@H](O)[C@H]1O` (stereo partly drawn) [Lacto-N-tetraose, Galβ1→3GlcNAcβ1→3Galβ1→4Glc], the “inhibitory action of oligosaccharides” value is “strongest inhibition”.

The assay is the same for the next values; noted with them: SW480; read-out: IC50 (concentration of oligosaccharides inhibiting the bonding of MCA to the cancer cells by 50%).
For `CO[C@@H]1O[C@H](CO)[C@@H](O[C@@H]2O[C@H](CO)[C@H](O)[C@H](O)[C@H]2O)[C@H](O)[C@H]1NC(C)=O` [Galβ1→4GlcNAcβ1-OMe], the pIC50 was below 2.30.

Consider `OC[C@H]1O[C@@H](O[C@H]2[C@H](O)[C@@H](O)C(O)O[C@@H]2CO)[C@H](O)[C@@H](O)[C@H]1O` (stereo partly drawn) [Lactose, Galβ1→4Glc], for which the pIC50 is 1.68.

Turning to `CC(=O)N[C@H]1[C@H](O[C@H]2[C@@H](O)[C@@H](CO)O[C@@H](O[C@H]3[C@H](O)[C@@H](O)C(O)O[C@@H]3CO)[C@@H]2O)O[C@H](CO)[C@@H](O)[C@@H]1O[C@@H]1O[C@H](CO)[C@H](O)[C@H](O)[C@H]1O` (stereo partly drawn) [Lacto-N-tetraose, Galβ1→3GlcNAcβ1→3Galβ1→4Glc], the pIC50 was 3.17.

`O=C[C@H](O)[C@@H](O)[C@H](O[C@@H]1O[C@H](CO)[C@@H](O)[C@H](O)[C@H]1O)[C@H](O)CO` [Cellobiose, Galβ1→4Glc]: the pIC50 is below 1.30.

With `CO[C@H]1O[C@H](CO)[C@H](O)[C@H](O[C@@H]2O[C@H](CO)[C@H](O)[C@H](O)[C@H]2O)[C@H]1NC(C)=O` [Galβ1→3GalNAcα1-OMe], the pIC50 was 2.55.
